Laboratory results published in paper PMC4076177, “Soluble Phosphatidylserine Binds to Two Sites on Human Factor IXa in a Ca^2+ Dependent Fashion to Specifically Regulate Structure and Activity” (PLoS ONE, 2014).

These compounds were tested against T1, Human FIXa (Homo sapiens, UniProt P00740) (assay: intrinsic fluorescence titration, single-site hyperbolic fit). Conditions: 5 mM CaCl2, 0.20 µM FIXa, 50 mM Tris, 150 mM NaCl, 0.6% PEG, pH 7.5, 22°C; unreliable (Figure 2 legend prints 2000 µM).
T1 construct: gene F9; purchased from Haematologic Technologies, no tag stated
T1 sequence (P00740 47-191): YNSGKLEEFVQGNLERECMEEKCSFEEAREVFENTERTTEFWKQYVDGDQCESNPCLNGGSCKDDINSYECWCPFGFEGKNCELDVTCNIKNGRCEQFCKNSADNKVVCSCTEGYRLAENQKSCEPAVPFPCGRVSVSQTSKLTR
T1 sequence (P00740 227-461): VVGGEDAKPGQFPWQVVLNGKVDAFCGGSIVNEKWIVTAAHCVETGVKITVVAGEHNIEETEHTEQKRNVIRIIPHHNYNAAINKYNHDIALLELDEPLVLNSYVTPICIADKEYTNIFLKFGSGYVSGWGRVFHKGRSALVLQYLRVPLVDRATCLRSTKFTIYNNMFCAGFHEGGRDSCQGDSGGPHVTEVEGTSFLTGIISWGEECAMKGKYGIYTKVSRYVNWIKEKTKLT
Format: binding
Excerpt: intrinsic fluorescence titration, single-site hyperbolic fit on Human FIXa
In the case of `CCCCCC(=O)OC[C@H](COP(=O)([O-])OCC[N+](C)(C)C)OC(=O)CCCCC` [C6PC], the “Kd, μM (determined by monitoring change in intrinsic fluorescence)” value is reported as 1000 ± 45 µM.

Same assay, conditions: read-out: Kd, μM (determined by monitoring change in intrinsic fluorescence)
Compound `CCCCCC(=O)OC[C@H](COP(=O)(O)OC[C@@H](N)C(=O)O)OC(=O)CCCCC` [C6(D)PS] has a Kd of 208 ± 18 µM.
`CCCCCC(=O)OC[C@H](COP(=O)(O)O)OC(=O)CCCCC` [C6PA] was tested, and the Kd was 238 ± 42.7 µM.
`CCCCCC(=O)OC[C@H](COP(=O)(O)OCCN)OC(=O)CCCCC` [C6PE] showed a Kd of 66 ± 7 µM.
`CCCCCC(=O)OC[C@H](COP(=O)(O)OCC(O)CO)OC(=O)CCCCC` (stereo partly drawn) [C6PG] was tested, and the Kd was 307 ± 28.8 µM.
`CCCCCC(=O)OC[C@H](COP(=O)(O)OC[C@H](N)C(=O)O)OC(=O)CCCCC` [C6PS, 1,2-dicaproyl-sn-glycero-3-phospho-L-serine] was tested, and the Kd was 1.3 ± 0.2 µM.
